Assay [1] deals with EGFR del19/T790M/C797S (Homo sapiens, UniProt P00533, C797S/DEL746-750/T790M). The assay can be described thus: Biochemical EGFR kinase assay (Lance Ultra TR-FRET), triple mutant del19/T790M/C797S. Put shortly:
(§1)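 In this biochemical assay, phosphorylation after a one-hour room-temperature reaction was detected with europium-labelled anti-phosphopeptide antibody at 2 nM final concentration.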

Assay [2] has as its target EGFR L858R/T790M/C797S (Homo sapiens, UniProt P00533, C797S/L858R/T790M). The assay can be described thus: Biochemical EGFR kinase assay (Lance Ultra TR-FRET), triple mutant L858R/T790M/C797S. The essentials:
as §1
Background: Time-resolved FRET reads energy transfer from a long-lived donor to a nearby acceptor.

The target of assay [3] is EGFR del19/C797S (Homo sapiens, UniProt P00533, C797S/DEL746-750). The assay can be described thus: Biochemical EGFR kinase assay (Lance Ultra TR-FRET), double mutant del19/C797S. Put shortly: as §1
Sequence of EGFR del19/C797S (P00533 with tags, fused parts or gaps DEL746-750/C797S): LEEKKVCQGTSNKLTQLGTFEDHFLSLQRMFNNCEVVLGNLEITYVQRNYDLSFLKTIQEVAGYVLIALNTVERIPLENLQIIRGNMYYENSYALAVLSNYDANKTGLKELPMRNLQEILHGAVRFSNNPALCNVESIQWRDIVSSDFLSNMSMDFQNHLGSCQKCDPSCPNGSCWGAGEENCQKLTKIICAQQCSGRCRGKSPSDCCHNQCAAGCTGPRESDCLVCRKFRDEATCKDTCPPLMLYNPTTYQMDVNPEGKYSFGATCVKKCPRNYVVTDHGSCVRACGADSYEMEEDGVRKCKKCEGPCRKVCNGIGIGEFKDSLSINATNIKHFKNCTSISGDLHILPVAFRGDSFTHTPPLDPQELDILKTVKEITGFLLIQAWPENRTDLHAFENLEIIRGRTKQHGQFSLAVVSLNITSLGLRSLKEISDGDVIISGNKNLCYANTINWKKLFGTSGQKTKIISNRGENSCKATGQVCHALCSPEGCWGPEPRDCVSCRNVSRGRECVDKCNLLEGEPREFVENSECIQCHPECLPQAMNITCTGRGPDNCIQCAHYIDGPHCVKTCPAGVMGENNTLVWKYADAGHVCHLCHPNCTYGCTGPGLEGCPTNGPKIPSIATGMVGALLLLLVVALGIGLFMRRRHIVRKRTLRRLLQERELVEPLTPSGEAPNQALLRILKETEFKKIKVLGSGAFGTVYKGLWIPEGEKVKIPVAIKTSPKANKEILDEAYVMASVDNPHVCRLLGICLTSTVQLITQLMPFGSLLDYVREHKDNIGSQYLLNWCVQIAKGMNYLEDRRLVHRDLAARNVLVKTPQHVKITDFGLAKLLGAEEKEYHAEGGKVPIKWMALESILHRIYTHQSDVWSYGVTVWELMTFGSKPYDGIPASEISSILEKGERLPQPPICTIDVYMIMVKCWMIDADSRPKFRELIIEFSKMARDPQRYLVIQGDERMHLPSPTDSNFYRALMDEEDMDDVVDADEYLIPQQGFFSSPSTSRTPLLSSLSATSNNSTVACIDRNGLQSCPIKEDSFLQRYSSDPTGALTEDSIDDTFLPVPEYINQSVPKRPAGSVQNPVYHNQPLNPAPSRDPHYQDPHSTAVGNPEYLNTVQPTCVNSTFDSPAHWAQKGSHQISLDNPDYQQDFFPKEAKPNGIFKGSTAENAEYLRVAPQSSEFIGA
Assay [4] has as its target EGFR L858R/C797S (Homo sapiens, UniProt P00533, C797S/L858R). The assay can be described thus: Biochemical EGFR kinase assay (Lance Ultra TR-FRET), double mutant L858R/C797S. The essentials: as §1
The target in assay [5] is EGFR wildtype (Homo sapiens, UniProt P00533). Put plainly: Biochemical EGFR kinase assay (Lance Ultra TR-FRET), wildtype. The essentials: as §1
Sequence of EGFR wildtype (P00533 25-1210): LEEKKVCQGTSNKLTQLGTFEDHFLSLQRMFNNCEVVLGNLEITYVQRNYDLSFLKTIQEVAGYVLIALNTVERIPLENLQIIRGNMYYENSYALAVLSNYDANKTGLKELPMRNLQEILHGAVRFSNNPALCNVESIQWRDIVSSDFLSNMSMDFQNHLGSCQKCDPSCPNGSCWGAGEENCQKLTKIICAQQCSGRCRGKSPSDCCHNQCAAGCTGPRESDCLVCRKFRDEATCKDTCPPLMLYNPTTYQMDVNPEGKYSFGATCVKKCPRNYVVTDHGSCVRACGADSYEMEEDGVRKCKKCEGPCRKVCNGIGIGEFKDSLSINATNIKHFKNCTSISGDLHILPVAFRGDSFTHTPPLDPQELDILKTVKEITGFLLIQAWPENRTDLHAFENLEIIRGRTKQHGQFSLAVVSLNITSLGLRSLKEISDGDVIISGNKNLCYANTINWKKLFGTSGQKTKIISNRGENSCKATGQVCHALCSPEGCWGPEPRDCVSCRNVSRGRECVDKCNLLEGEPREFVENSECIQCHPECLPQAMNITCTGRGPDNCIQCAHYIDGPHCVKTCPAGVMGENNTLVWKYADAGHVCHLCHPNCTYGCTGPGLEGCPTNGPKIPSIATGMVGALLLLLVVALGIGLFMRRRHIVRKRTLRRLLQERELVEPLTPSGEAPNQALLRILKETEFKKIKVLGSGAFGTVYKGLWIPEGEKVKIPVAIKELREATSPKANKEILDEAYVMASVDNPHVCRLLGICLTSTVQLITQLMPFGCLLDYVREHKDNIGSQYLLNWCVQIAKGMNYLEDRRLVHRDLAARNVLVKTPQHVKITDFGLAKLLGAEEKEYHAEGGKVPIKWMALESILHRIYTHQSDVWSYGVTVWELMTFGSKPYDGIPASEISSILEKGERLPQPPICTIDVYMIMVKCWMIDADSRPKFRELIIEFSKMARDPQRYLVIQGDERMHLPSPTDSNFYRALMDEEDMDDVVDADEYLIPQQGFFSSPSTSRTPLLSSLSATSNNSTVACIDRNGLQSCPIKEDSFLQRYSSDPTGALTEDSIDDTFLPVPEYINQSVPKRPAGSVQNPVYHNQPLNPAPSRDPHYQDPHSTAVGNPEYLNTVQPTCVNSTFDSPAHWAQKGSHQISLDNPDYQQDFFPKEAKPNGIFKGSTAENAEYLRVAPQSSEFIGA
The mark [6] stands for this setting: IC50 del19/T790M/C797S (nM) 100 μM ATP, 100 μM ATP.
[7] abbreviates: Km ATP, read-out: IC50 del19/T790M/C797S (nM) Km ATP.
Setting [8] is: IC50 L858R/T790M/C797S (nM) 100 μM ATP, 100 μM ATP.
The mark [9] stands for this setting: Km ATP, read-out: IC50 L858R/T790M/C797S (nM) Km ATP.
[10] abbreviates: IC50 del19/C797S (nM) 100 μM ATP, 100 μM ATP.
The mark [11] stands for this setting: Km ATP, read-out: IC50 del19/C797S (nM) Km ATP.
The mark [12] stands for this setting: IC50 L858R/C797S (nM) 100 μM ATP, 100 μM ATP.
Setting [13] is: Km ATP, read-out: IC50 L858R/C797S (nM) Km ATP.
[14] abbreviates: IC50 WT (nM) 100 μM ATP, 100 μM ATP.
Where [15] appears, read: Km ATP, read-out: IC50 WT (nM) Km ATP.

Like-named read-outs stand apart in the source and are kept apart here. A value given as a limit tells only on which side of the number the result lay.

Sequence of EGFR del19/T790M/C797S (P00533 with tags, fused parts or gaps DEL746-750/T790M/C797S): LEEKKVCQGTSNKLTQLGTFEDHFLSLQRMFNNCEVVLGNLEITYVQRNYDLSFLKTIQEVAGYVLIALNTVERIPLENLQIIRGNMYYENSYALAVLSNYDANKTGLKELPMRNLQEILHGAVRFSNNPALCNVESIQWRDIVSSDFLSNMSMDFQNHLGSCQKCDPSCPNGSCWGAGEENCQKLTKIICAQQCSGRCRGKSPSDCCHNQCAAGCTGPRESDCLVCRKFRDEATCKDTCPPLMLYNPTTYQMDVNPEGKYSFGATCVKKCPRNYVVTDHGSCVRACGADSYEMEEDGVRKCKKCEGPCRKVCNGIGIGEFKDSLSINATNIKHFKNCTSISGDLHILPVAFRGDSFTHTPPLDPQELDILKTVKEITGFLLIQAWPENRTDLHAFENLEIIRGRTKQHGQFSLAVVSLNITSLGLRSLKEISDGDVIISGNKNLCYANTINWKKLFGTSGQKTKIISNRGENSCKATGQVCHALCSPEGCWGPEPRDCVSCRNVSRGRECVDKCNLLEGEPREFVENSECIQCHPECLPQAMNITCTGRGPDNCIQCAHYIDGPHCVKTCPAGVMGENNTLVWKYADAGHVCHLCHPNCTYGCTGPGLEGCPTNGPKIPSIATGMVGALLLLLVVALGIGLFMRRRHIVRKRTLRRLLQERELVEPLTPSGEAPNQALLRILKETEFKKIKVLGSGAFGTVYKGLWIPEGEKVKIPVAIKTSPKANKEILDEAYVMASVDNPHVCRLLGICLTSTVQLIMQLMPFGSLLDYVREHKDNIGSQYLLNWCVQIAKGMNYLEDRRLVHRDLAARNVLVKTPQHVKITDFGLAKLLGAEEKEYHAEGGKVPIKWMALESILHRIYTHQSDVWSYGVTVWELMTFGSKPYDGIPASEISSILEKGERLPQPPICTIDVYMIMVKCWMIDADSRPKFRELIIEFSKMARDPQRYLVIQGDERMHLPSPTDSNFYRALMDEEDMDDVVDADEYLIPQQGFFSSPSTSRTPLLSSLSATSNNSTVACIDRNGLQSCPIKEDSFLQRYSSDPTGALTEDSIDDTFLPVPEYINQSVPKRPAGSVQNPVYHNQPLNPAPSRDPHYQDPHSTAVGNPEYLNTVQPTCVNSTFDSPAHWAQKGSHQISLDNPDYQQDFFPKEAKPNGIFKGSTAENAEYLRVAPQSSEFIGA
Sequence of EGFR L858R/T790M/C797S (P00533 25-1210 T790M/C797S/L858R): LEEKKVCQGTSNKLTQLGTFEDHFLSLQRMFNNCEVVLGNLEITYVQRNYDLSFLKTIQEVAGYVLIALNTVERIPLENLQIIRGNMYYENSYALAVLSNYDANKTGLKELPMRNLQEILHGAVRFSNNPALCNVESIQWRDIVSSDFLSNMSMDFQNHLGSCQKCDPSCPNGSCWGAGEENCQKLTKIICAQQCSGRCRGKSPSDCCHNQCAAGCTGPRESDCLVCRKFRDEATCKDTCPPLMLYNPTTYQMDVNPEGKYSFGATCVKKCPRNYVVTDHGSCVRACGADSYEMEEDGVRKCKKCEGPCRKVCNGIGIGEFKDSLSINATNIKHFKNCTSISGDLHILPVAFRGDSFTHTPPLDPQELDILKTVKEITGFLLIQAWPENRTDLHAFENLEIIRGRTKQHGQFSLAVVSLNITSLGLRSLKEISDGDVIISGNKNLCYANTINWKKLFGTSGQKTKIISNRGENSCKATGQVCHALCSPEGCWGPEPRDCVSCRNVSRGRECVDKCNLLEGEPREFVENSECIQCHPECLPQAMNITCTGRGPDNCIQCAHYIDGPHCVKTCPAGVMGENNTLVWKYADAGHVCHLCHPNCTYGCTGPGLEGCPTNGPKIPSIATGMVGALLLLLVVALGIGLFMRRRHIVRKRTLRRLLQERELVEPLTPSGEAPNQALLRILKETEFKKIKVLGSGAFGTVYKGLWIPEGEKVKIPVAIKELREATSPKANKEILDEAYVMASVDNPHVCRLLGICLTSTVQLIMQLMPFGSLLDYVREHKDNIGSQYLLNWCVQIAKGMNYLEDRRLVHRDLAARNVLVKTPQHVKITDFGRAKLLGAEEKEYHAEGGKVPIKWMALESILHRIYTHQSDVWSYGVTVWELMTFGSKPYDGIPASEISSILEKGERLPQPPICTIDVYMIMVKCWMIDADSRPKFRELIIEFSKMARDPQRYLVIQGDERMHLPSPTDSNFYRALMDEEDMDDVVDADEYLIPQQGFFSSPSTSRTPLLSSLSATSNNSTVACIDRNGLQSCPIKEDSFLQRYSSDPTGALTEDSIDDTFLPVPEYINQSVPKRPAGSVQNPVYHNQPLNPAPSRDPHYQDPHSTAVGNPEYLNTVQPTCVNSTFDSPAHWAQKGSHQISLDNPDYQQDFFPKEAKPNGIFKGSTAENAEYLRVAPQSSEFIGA

Regarding `O=S(=O)(C1CC1)n1cc(-c2nccc(Nc3cc(N[C@H]4CC[C@@H](CO)CC4)c(-c4cc(CN5CCC(F)(F)CC5)ccn4)cn3)n2)cn1` [Example 113, ((1s,4s)-4-((6′-((2-(1-(Cyclopropylsulfonyl)-1H-pyrazol-4-yl)pyrimidin-4-yl)amino)-4-((4,4-difluoropiperidin-1-yl)methyl)-[2,3′-bipyridin]-4′-yl)amino)cyclohexyl)methanol], the IC50 is 5.3 nM in assay [1] (setting [6]); 7.5 nM in assay [1] (setting [7]); 3.2 nM in assay [2] (setting [8]); 2.3 nM in assay [2] (setting [9]); 19.9 nM in assay [3] (setting [10]); 11 nM in assay [3] (setting [11]). The IC50 in assay [4] (setting [12]) was 20.8 nM; in assay [4] (setting [13]) it was 8.8 nM; in assay [5] (setting [14]) it was more than 10000 nM; in assay [5] (setting [15]), 15 nM.
Turning to `CC(C)(O)[C@H]1CC[C@@H](Nc2cc(Nc3ccnc(-c4cnn(S(=O)(=O)C5CC5)c4)n3)ncc2-c2cc(CN3CCC(F)(F)CC3)ccn2)CC1` [Example 114, 2-((1s,4s)-4-((6′-((2-(1-(Cyclopropylsulfonyl)-1H-pyrazol-4-yl)pyrimidin-4-yl)amino)-4-((4,4-difluoropiperidin-1-yl)methyl)-[2,3′-bipyridin]-4′-yl)amino)cyclohexyl)propan-2-ol], the IC50 is 11.2 nM in assay [1] (setting [6]); 8.5 nM in assay [1] (setting [7]); 4.5 nM in assay [2] (setting [8]); 2.8 nM in assay [2] (setting [9]); 29.9 nM in assay [3] (setting [10]); 27.1 nM in assay [3] (setting [11]). The IC50 in assay [4] (setting [12]) was 33.7 nM; in assay [4] (setting [13]), 15.7 nM; in assay [5] (setting [14]) it was 653 nM; in assay [5] (setting [15]), 46.8 nM.
`CN(C)CCOc1cnc(-c2cnc(Nc3ccnc(-c4cnn(S(=O)(=O)C5CC5)c4)n3)cc2NC2CCC(C)(O)CC2)cn1` (stereo not shown) [Example 115, (1s,4s)-4-((2-((2-(1-(Cyclopropylsulfonyl)-1H-pyrazol-4-yl)pyrimidin-4-yl)amino)-5-(5-(2-(dimethylamino)ethoxy)pyrazin-2-yl)pyridin-4-yl)amino)-1-methylcyclohexan-1-ol]: the IC50 in assay [1] (setting [6]) worked out at 0.4 nM; in assay [1] (setting [7]), 0.1 nM; in assay [2] (setting [8]), 0.1 nM; in assay [2] (setting [9]), 0.1 nM; in assay [3] (setting [10]), 0.8 nM; in assay [3] (setting [11]), 0.4 nM. The IC50 is 0.5 nM in assay [4] (setting [12]), 0.1 nM in assay [4] (setting [13]), more than 10000 nM in assay [5] (setting [14]) and 1.8 nM in assay [5] (setting [15]).
Take `CN(C)CCOc1cnc(-c2cnc(Nc3ccnc(-c4cnn(S(=O)(=O)C5CC5)c4)n3)cc2N[C@H]2CC[C@@H](CO)CC2)cn1` [Example 116, ((1s,4s)-4-((2-((2-(1-(Cyclopropylsulfonyl)-1H-pyrazol-4-yl)pyrimidin-4-yl)amino)-5-(5-(2-(dimethylamino)ethoxy)pyrazin-2-yl)pyridin-4-yl)amino)cyclohexyl)methanol]: the IC50 came to 0.1 nM in assay [1] (setting [6]); 0.1 nM in assay [1] (setting [7]); 0.04 nM in assay [2] (setting [8]); 0.04 nM in assay [2] (setting [9]); 0.1 nM in assay [3] (setting [10]); 0.1 nM in assay [3] (setting [11]). In addition, the IC50 in assay [4] (setting [12]) was found to be 0.3 nM; in assay [4] (setting [13]), 0.1 nM; in assay [5] (setting [14]), 384 nM; in assay [5] (setting [15]) it was 0.4 nM.
As to `CN(C)CCOc1cnc(-c2cnc(Nc3ccnc(-c4cnn(S(=O)(=O)C5CC5)c4)n3)cc2N[C@H]2CC[C@@H](C(C)(C)O)CC2)cn1` [Example 117, 2-((1s,4s)-4-((2-((2-(1-(Cyclopropylsulfonyl)-1H-pyrazol-4-yl)pyrimidin-4-yl)amino)-5-(5-(2-(dimethylamino)ethoxy)pyrazin-2-yl)pyridin-4-yl)amino)cyclohexyl)propan-2-ol], the IC50 in assay [1] (setting [6]) was determined as 0.4 nM; in assay [1] (setting [7]), 0.2 nM; in assay [2] (setting [8]) it was 0.1 nM; in assay [2] (setting [9]) it was 0.1 nM; in assay [3] (setting [10]), 0.5 nM; in assay [3] (setting [11]) it was 0.3 nM. The IC50 is 0.5 nM in assay [4] (setting [12]), 0.2 nM in assay [4] (setting [13]), 6500 nM in assay [5] (setting [14]) and 1.9 nM in assay [5] (setting [15]).
On to `CC(C)(O)c1cnc(-c2cnc(Nc3ccnc(-c4cnn(S(=O)(=O)C5CC5)c4)n3)cc2N[C@H]2CC[C@@](C)(O)CC2)cn1` [Example 118, (1s,4s)-4-((2-((2-(1-(Cyclopropylsulfonyl)-1H-pyrazol-4-yl)pyrimidin-4-yl)amino)-5-(5-(2-hydroxypropan-2-yl)pyrazin-2-yl)pyridin-4-yl)amino)-1-methylcyclohexan-1-ol], for which the IC50 is 0.04 nM in assay [1] (setting [6]); 0.1 nM in assay [1] (setting [7]); 0.2 nM in assay [2] (setting [8]); 0.1 nM in assay [2] (setting [9]); 0.3 nM in assay [3] (setting [10]); 0.1 nM in assay [3] (setting [11]). For the same compound, the results for the IC50 in assay [4] (setting [12]), in assay [4] (setting [13]) and in assay [5] (setting [14]) were 0.7 nM, 0.05 nM and 400 nM, respectively.
For the compound `CC(C)(O)c1cnc(-c2cnc(Nc3ccnc(-c4cnn(S(=O)(=O)C5CC5)c4)n3)cc2N[C@H]2CC[C@@H](CO)CC2)cn1` [Example 119, 2-(5-(6-((2-(1-(Cyclopropylsulfonyl)-1H-pyrazol-4-yl)pyrimidin-4-yl)amino)-4-(((1s,4s)-4-(hydroxymethyl)cyclohexyl)amino)pyridin-3-yl)pyrazin-2-yl)propan-2-ol], the IC50 is 0.1 nM in assay [1] (setting [6]); 0.1 nM in assay [1] (setting [7]); 0.2 nM in assay [2] (setting [8]); 0.1 nM in assay [2] (setting [9]); 0.2 nM in assay [3] (setting [10]); 0.1 nM in assay [3] (setting [11]). Further, the IC50 amounted to 0.3 nM in assay [4] (setting [12]), 0.03 nM in assay [4] (setting [13]), 108 nM in assay [5] (setting [14]) and 1 nM in assay [5] (setting [15]).
As to `CC(C)(O)c1cnc(-c2cnc(Nc3ccnc(-c4cnn(S(=O)(=O)C5CC5)c4)n3)cc2N[C@H]2CC[C@@H](C(C)(C)O)CC2)cn1` [Example 120, 2-(5-(6-((2-(1-(Cyclopropylsulfonyl)-1H-pyrazol-4-yl)pyrimidin-4-yl)amino)-4-(((1s,4s)-4-(2-hydroxypropan-2-yl)cyclohexyl)amino)pyridin-3-yl)pyrazin-2-yl)propan-2-ol], the IC50 worked out at 0.2 nM in assay [1] (setting [6]); 0.2 nM in assay [1] (setting [7]); 0.4 nM in assay [2] (setting [8]); 0.1 nM in assay [2] (setting [9]); 0.7 nM in assay [3] (setting [10]); 0.5 nM in assay [3] (setting [11]). For the same compound, the IC50 in assay [4] (setting [13]) turned out to be 0.1 nM; in assay [5] (setting [14]), 968 nM; in assay [5] (setting [15]), 4.3 nM.
Turning to `CC(C)Nc1cc(Nc2ccnc(-c3cnn(S(=O)(=O)C4CC4)c3)n2)ncc1-c1cnc(C(C)(C)O)cn1` [Example 121, 2-(5-(6-((2-(1-(Cyclopropylsulfonyl)-1H-pyrazol-4-yl)pyrimidin-4-yl)amino)-4-(isopropylamino)pyridin-3-yl)pyrazin-2-yl)propan-2-ol], the IC50 in assay [1] (setting [7]) is 0.5 nM; in assay [2] (setting [9]) it was 0.2 nM; in assay [3] (setting [11]), 4.6 nM; in assay [4] (setting [13]) it was 2.9 nM; in assay [5] (setting [15]), 22.6 nM.
Turning to `CC(C)Nc1cc(Nc2ccnc(-c3cnn(S(=O)(=O)C4CC4)c3)n2)ncc1-c1cnc(OCCN(C)C)cn1` [Example 122, N^2-(2-(1-(Cyclopropylsulfonyl)-1H-pyrazol-4-yl)pyrimidin-4-yl)-5-(5-(2-(dimethylamino)ethoxy)pyrazin-2-yl)-N^4-isopropylpyridine-2,4-diamine], the IC50 in assay [1] (setting [7]) stood at 0.3 nM; in assay [2] (setting [9]) it was 0.1 nM; in assay [3] (setting [11]), 9.7 nM; in assay [4] (setting [13]), 4.3 nM; in assay [5] (setting [15]), 7.4 nM.
Consider `O=S(=O)(C1CC1)n1cc(-c2nccc(Nc3cc(N[C@H]4CC[C@@H](F)CC4)c(-c4ccc(N5CCOCC5)cn4)cn3)n2)cn1` [Example 123, N^6′-(2-(1-(Cyclopropylsulfonyl)-1H-pyrazol-4-yl)pyrimidin-4-yl)-N^4′-((1s,4s)-4-fluorocyclohexyl)-5-morpholino-[2,3′-bipyridine]-4′,6′-diamine], for which the IC50 in assay [1] (setting [7]) worked out at 2.6 nM; in assay [2] (setting [9]), 0.7 nM; in assay [3] (setting [11]) it was 28.6 nM; in assay [4] (setting [13]), 2.3 nM; in assay [5] (setting [15]), 22 nM.
Turning to `CC(C)Nc1cc(Nc2ccnc(-c3cnn(S(=O)(=O)C4CC4)c3)n2)ncc1-c1ccc(N2CCOCC2)cn1` [Example 124, N^6′-(2-(1-(Cyclopropylsulfonyl)-1H-pyrazol-4-yl)pyrimidin-4-yl)-N^4′-isopropyl-5-morpholino-[2,3′-bipyridine]-4′,6′-diamine], the IC50 was determined as 0.3 nM in assay [1] (setting [7]); 0.4 nM in assay [2] (setting [9]); 3.3 nM in assay [3] (setting [11]); 0.4 nM in assay [4] (setting [13]); 12.7 nM in assay [5] (setting [15]).
Regarding `CC(C)Nc1cc(Nc2ccnc(-c3cnn(S(=O)(=O)C4CC4)c3)n2)ncc1-c1ccc(CN2CCOCC2)cn1` [Example 125, N^6′-(2-(1-(Cyclopropylsulfonyl)-1H-pyrazol-4-yl)pyrimidin-4-yl)-N^4′-isopropyl-5-(morpholinomethyl)-[2,3′-bipyridine]-4′,6′-diamine], the IC50 worked out at 0.7 nM in assay [1] (setting [7]); 0.3 nM in assay [2] (setting [9]); 8.9 nM in assay [3] (setting [11]); 12.1 nM in assay [4] (setting [13]); 44.8 nM in assay [5] (setting [15]).

The values are drawn from patent US12258328B2, “6-membered heteroaryl-containing aminopyridine compounds as EGFR inhibitors” (YUHAN CORPORATION, priority 2021, dated 2025).
